IC50 data for one compound are collected here from BindingDB's records for patent US20240043403 (Astellas Pharma, 2024).

Broadly, the IC50 is the concentration at which inhibition is half-maximal.

The target in this experiment is Diacylglycerol kinase zeta (Homo sapiens, UniProt Q13574). The experiment in a line: Evaluation of DGKdelta Inhibitory Effect. The procedure:
To a 384-well plate (Greiner Bio-One Co., Ltd.), 3 μL of a DGK ξ enzyme dissolved in an assay buffer (40 mM Tris-HCl pH 7.5, 10 mM MgCl2, 1 mM dithiothreitol (DTT) and 0.1 mg/mL bovine serum albumin (BSA)) (90 ng/mL) was added, and 3 μL of the test compound diluted with the same assay buffer was added so that an intended final concentration was obtained. The mixture was left standing at room temperature for 15 minutes, 3 μL of a substrate (150 μM 1-oleoyl-2-acetyl-sn-glycerol (Sigma-Aldrich Co. LLC), 480 μM phosphatidylserine (Avanti, Inc.) and 150 μM UltraPure-ATP (attached to ADP-Glo)) was then added, and the mixture was left standing at room temperature for 30 minutes to react. Thereafter, 3 μL of an ADP-Glo Reagent was added, and the mixture was left standing at room temperature for 40 minutes to stop the enzyme reaction. Further, 6 μL of a Kinase-Detection Reagent was added, the mixture was left standing at room temperature for 30 minutes, and the luminescence was then measured using ARVO X3 (PerkinElmer, Inc.). The half maximal inhibitory concentration (IC50) was calculated by Sigmoid-Emax model non-linear regression analysis, where the signal value in solvent treatment was set to 0% inhibition and the signal value without addition of the DGK ξ enzyme was set to 100% inhibition.

Sequence of Diacylglycerol kinase zeta (Q13574 whole entry): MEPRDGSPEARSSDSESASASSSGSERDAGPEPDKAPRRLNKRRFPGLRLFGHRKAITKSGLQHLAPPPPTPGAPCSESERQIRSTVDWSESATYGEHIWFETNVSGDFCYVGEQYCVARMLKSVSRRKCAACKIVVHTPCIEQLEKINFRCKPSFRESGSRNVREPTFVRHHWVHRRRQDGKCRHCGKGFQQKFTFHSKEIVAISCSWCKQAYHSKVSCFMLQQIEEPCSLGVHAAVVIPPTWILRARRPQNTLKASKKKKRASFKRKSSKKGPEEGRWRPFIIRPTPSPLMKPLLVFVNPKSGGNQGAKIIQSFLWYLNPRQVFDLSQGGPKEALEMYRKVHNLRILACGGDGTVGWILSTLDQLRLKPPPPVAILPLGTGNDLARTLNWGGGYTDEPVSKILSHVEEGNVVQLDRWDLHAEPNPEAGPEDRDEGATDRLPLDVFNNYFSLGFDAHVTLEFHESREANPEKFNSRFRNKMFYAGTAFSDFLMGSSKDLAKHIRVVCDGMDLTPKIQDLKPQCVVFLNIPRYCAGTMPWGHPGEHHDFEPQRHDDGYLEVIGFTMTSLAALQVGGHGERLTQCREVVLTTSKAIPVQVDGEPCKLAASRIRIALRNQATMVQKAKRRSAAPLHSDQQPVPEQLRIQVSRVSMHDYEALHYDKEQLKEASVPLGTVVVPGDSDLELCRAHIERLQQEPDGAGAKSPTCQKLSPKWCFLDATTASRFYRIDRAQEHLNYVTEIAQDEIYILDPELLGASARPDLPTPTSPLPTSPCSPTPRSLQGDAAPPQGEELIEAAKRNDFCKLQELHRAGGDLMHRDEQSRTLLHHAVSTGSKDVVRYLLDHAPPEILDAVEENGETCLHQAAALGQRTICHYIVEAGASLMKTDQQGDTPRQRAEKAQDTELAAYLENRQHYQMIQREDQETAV

As for `NC[C@@H]1CCCN(c2c(NC(=O)c3ccn(CC(F)F)n3)ccc(Oc3ccccc3F)c2C(F)(F)F)C1` [US20240043403, Example 1], half-maximal inhibition (IC50) was put at 0.016 µM.
